# Data published in US10100078B2, “Nanoparticles, process for preparation and use thereof as carrier for amphipatic and hydrophobic molecules in fields of medicine including cancer treatment and food related compounds” (priority 2011, dated 2018).
# Legend:
# [1] = test system: PC-3 prostate cancer cells; experiment: FMCA cancer cell killing effect on PC-3 prostate cancer cells; assay type: cell-based, human; conditions: PC-3, 3 days
# Method: The human prostate adenocarcinoma, PC-3, cultured in a 50/50 mixture of HAM's F-12K and RPMI-1640. […] All media were supplemented with 10% heat-inactivated fetal calf serum (FCS), 2 mM glutamine, 100 μg/ml streptomycin and 100 IE/ml penicillin (all from Sigma Aldrich Co, St Louis, Mo., USA). All cell lines were incubated at 37° C. in humidified air containing 5% CO2.
# The FMCA method is based on measurement of fluorescence generated from hydrolysis of fluorescein diacetate (FDA) to fluorescein by cells with intact plasma membranes. After above mentioned incubation for 3 days, the medium was removed by aspiration. […] The plates were incubated for 45 minutes and the generated fluorescence from each well was measured in a 96-well scanning fluorometer. The fluorescence is proportional to the number of intact cells in the well. Quality criteria for a successful analysis included a fluorescence signal in the control wells of more than five times of the mean blank value, a mean co-efficient of variation (CV) in the control wells of less than 30%.
# The samples were 5-fold serially diluted in 6 steps starting from the concentration of 100 μg/ml, and incubated with PC-3 prostate cancer cells for 3 days. Then the cells were stained and read by the FMCA method.
# PC-3 cells were exposed for 3 days at pre-determined concentrations of G3 and docetaxel separately and in combination as shown on the graph. […]
# [2] = Detection of vitamin D3 in the water phase (DiaSorin Liaison); assay type: physicochemical; conditions: 50% cholesterol and 50% vitamin D3 membrane, assay has about one percent cross-reactivity with vitamin D3
# Method: Samples with cholecalciferol (vitamin D3) incorporated in G3 particles were analysed at a University Hospital Laboratory on a Liaison automatic instrument. Although the assay (DiaSorin Liaison) is designed to measure 25-HO-D3 it has about one percent cross-reactivity with non-hydroxylated vitamin D3.
# G3 particles were formed using 50% cholesterol and 50% vitamin D3 to form the lipid membrane. Quil A was added into the water phase to generate the G3 particles (for details, please refer to Example 1). 100% Cholesterol and 100% Vitamin D3 in water were used as the controls. Samples with vitamin D3 incorporated in G3 particles were analysed at the Uppsala University Hospital Laboratory on a DiaSorin Liaison automatic instrument.
# HL-60 AML cells = experiment: FMCA cancer cell killing effect on HL-60 AML cells; assay type: cell-based, human; conditions: HL-60, 3 days, pre-determined concentrations, alone or combined; FIG. 7
# Method: All media were supplemented with 10% heat-inactivated fetal calf serum (FCS), 2 mM glutamine, 100 μg/ml streptomycin and 100 IE/ml penicillin (all from Sigma Aldrich Co, St Louis, Mo., USA). All cell lines were incubated at 37° C. in humidified air containing 5% CO2.
# The FMCA method is based on measurement of fluorescence generated from hydrolysis of fluorescein diacetate (FDA) to fluorescein by cells with intact plasma membranes. After above mentioned incubation for 3 days, the medium was removed by aspiration. After one wash with PBS, 100 μl/well of FDA dissolved in a physiological buffer (10 μg/ml) was added. The plates were incubated for 45 minutes and the generated fluorescence from each well was measured in a 96-well scanning fluorometer. The fluorescence is proportional to the number of intact cells in the well. Quality criteria for a successful analysis included a fluorescence signal in the control wells of more than five times of the mean blank value, a mean co-efficient of variation (CV) in the control wells of less than 30%.
# The samples were 5-fold serial diluted in 6 steps starting from 100 μg/ml, and incubated or 3 days with HL-60 AML cells f. Then the cells were stained and read by the FMCA method.
# HL-60 AML cells were exposed for 3 days at pre-determined concentrations of G3 and cytarabine separately and in combination of these two as shown on FIG. 7. […]
structure (smiles),measurement,setting,value
CC(=O)O[C@@]12CO[C@@H]1C[C@H](O)[C@@]1(C)C(=O)[C@H](O)C3=C(C)[C@@H](OC(=O)[C@H](O)[C@@H](NC(=O)OC(C)(C)C)c4ccccc4)C[C@@](O)([C@@H](OC(=O)c4ccccc4)[C@H]21)C3(C)C [docetaxel],cells killed,"[1]; pre-determined concentrations, alone or combined, FIG. 10",2%
"CO[C@H]1C(=O)[C@]2(C)[C@@H](OC)C[C@H]3OC[C@@]3(OC(C)=O)[C@H]2[C@H](OC(=O)c2ccccc2)[C@]2(O)C[C@H](OC(=O)[C@H](O)[C@@H](NC(=O)OC(C)(C)C)c3ccccc3)C(C)=C1C2(C)C [Cabazitaxel, cabazitaxel]",IC50,"[1]; Homo sapiens, 72 h, cabazitaxel from 100 μM, alone or with G3 fixed 1 μM, FIG. 11",25.5 µM
"C=C1CC[C@H](O)C/C1=C/C=C1\CCC[C@]2(C)[C@@H]([C@H](C)CCCC(C)C)CC[C@@H]12 [vitamin D3 control, cholecalciferol]",vitamin D3 detected,[2],only trace amount
Nc1ccn([C@@H]2O[C@H](CO)[C@@H](O)[C@@H]2O)c(=O)n1 [cytarabine],cells killed,HL-60 AML cells,55%
